Laboratory results taken from patent US20220324835A1 (Nurix Therapeutics, Inc., priority 2018, published 2022).

What was measured:
Cbl-b [1] = biological target: T1, Cbl-b (Homo sapiens, UniProt Q13191); test: Cbl-b inhibition assay (Cbl-b activity assay, FRET, Biological Example 1; 100 mM NaCl, 60 nM Src kinase); assay type: biochemical; details: upper bound stated in text lists; read-out: IC50 values in the Cbl-b inhibition assay of Biological Example 1
Procedure, shortened: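 TR-FRET assay using N-terminal biotinylated Avi-tagged Cbl-b bound to streptavidin-terbium, Src kinase for Cbl-b phosphorylation, and UbcH5B irreversibly conjugated to Bodipy-Fluorescein-ubiquitin. Phosphorylated Cbl-b binds UbcH5B-Ub, bringing the fluorophores together; inhibition is read as loss of FRET signal.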

Cbl-b (residues 36-427) = Cbl-b (residues 36-427) (Homo sapiens, UniProt Q13191); test: Cbl-b binding assay (SPR, Biacore T200); details: 20° C., 1:1 binding model
Sequence of Cbl-b (residues 36-427) (Q13191 36-427): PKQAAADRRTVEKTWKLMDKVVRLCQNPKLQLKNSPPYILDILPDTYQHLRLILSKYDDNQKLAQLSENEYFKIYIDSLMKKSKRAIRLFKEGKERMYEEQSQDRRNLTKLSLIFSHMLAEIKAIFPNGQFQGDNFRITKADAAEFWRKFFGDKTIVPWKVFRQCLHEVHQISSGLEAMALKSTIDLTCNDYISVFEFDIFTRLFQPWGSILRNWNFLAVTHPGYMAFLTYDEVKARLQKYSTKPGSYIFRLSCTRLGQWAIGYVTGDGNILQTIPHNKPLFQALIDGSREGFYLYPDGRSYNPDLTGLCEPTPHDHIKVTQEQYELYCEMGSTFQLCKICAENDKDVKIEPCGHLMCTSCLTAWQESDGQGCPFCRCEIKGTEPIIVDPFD
Procedure, shortened: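 Steps: capture protein on NeutrAvidin surface; inject compound dilutions (8 or 10 points from 100 or 50 μM) 50 s; allow 90-180 s dissociation; regenerate 20 s with 0.3 M NaCl. Runs at 20° C in HEPES pH 7.5/100 mM NaCl/2% DMSO; 1:1 fitting.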

Cbl-b [2] = biological target: T1, Cbl-b; test: Cbl-b activity assay (Cbl-b inhibition assay), TR-FRET of Cbl-b interaction with UbcH5B-Ub; assay type: biochemical; details: assay buffer with 100 mM NaCl, 60 nM Src kinase; read-out: Cbl-b activity IC50
Procedure, shortened: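 UbcH5B (C85K) conjugated to N-terminally Bodipy-Fluorescein-labeled ubiquitin served as the fluorescent partner. After compound preincubation, Src kinase (60 nM) with 1 mM ATP and 5 mM MgCl2 (final) was added for 1.5 h, followed by a further 1 h incubation. Some values were obtained with 50 mM NaCl and 30 nM Src.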

T1 sequence (Q13191 36-427): as above

| SMILES | IC50 (Cbl-b [1]) [µM] | Kd (Cbl-b (residues 36-427)) [µM] | IC50 (Cbl-b [2]) [µM] |
| --- | --- | --- | --- |
| C[C@H](Sc1nncn1C)c1cccc(NC(=O)c2cc(C(=O)N3CC[C@@H](N(C)C)C3)ccn2)c1 [Compound 159, 4-((R)-3-(dimethylamino)pyrrolidine-1-carbonyl)-N-(3-((S)-1-((4-methyl-4H-1,2,4-triazol-3-yl)thio)ethyl)phenyl)picolinamide] | ≤ 10 | 3 to 10 | 3 to 10 |
| C[C@H](Sc1nncn1C)c1cccc(NC(=O)c2cc(C(=O)N3C[C@H](O)C[C@H]3C)ccn2)c1 [Compound 153, 4-((2R,4R)-4-hydroxy-2-methylpyrrolidine-1-carbonyl)-N-(3-((S)-1-((4-methyl-4H-1,2,4-triazol-3-yl)thio)ethyl)phenyl)picolinamide] | ≤ 10 | > 10 | 3 to 10 |
| C[C@H](Cc1nncn1C)c1cccc(NC(=O)c2cc(C(=O)N3CCC(O)C3(C)C)ccn2)c1 (stereo partly drawn) [Compound 231, 4-(3-hydroxy-2,2-dimethylpyrrolidine-1-carbonyl)-N-(3-((R)-1-(4-methyl-4H-1,2,4-triazol-3-yl)propan-2-yl)phenyl)picolinamide] | ≤ 10 | 0.1 to 0.3 | 1 to 3 |
| CNCCNC(=O)c1ccnc(C(=O)Nc2cccc([C@H](C)Cc3nncn3C)c2)c1 [Compound 244, (R)-N2-(3-(1-(4-methyl-4H-1,2,4-triazol-3-yl)propan-2-yl)phenyl)-N4-(2-(methylamino)ethyl)pyridine-2,4-dicarboxamide] | ≤ 10 | 1 to 3 | 1 to 3 |
| Cn1cnnc1C(F)(F)C(C)(O)c1cccc(N2Cc3c(cccc3C(F)(F)F)C2=O)c1 (stereo not drawn) [Compound 295, 2-(3-(1,1-difluoro-2-hydroxy-1-(4-methyl-4H-1,2,4-triazol-3-yl)propan-2-yl)phenyl)-4-(trifluoromethyl)isoindolin-1-one] | ≤ 10 | 1 to 3 | 3 to 10 |
| C[C@H](Sc1nncn1C)c1cccc(NC(=O)c2cccc(-c3ccnn3C)c2)c1 [Compound 45, 3-(1-Methyl-1H-pyrazol-5-yl)-N-[3-[(1S)-1-[(4-methyl-4H-1,2,4-triazol-3-yl)sulfanyl]ethyl]phenyl]benzamide] | ≤ 10 | 3 to 10 | 3 to 10 |
| CC(Sc1nncn1C)c1cc(NC[C@H](C)O)nc(N2Cc3c(cccc3C(F)(F)F)C2=O)c1 (stereo partly drawn) [Compound 177, 2-[6-[[(2S)-2-hydroxypropyl]amino]-4-[1-[(4-methyl-1,2,4-triazol-3-yl)sulfanyl]ethyl]-2-pyridyl]-4-(trifluoromethyl)iso-indolin-1-one] | ≤ 10 | 3 to 10 | 3 to 10 |
| C[C@@H](Sc1nncn1C)c1ccnc(N2Cc3c(cccc3C(F)(F)F)C2=O)c1 [Compound 172b, (R)-2-(4-(1-((4-methyl-4H-1,2,4-triazol-3-yl)thio)ethyl)pyridin-2-yl)-4-(trifluoromethyl)isoindolin-1-one] | ≤ 10 | > 10 | 3 to 10 |
| CC(c1cccc(NC(=O)c2ccc(CO)c(C3CC3)n2)c1)C(F)(F)c1nncn1C (stereo not drawn) [Compound 287, 6-cyclopropyl-N-(3-(1,1-difluoro-1-(4-methyl-4H-1,2,4-triazol-3-yl)propan-2-yl)phenyl)-5-(hydroxymethyl)picolinamide] | ≤ 0.5 | 1 to 3 | 0.1 to 0.3 |
| C[C@H](Cc1nncn1C)c1cccc(NC(=O)c2cc(O[C@@H]3CC[C@H](O)C3)ccn2)c1 [Compound 207, 4-((1R,3S)-3-hydroxycyclopentyloxy)-N-(3-((R)-1-(4-methyl-4H-1,2,4-triazol-3-yl)propan-2-yl)phenyl)picolinamide] | ≤ 1 | 1 to 3 | 0.301 to 1 |
| C[C@H](Sc1nncn1C)c1cccc(NC(=O)c2cc(C(=O)N3CCC(O)CC3)ccn2)c1 [Compound 145, (S)-4-(4-hydroxypiperidine-1-carbonyl)-N-(3-(1-((4-methyl-4H-1,2,4-triazol-3-yl)thio)ethyl)phenyl)picolinamide] | ≤ 10 | 3 to 10 | 1 to 3 |
| C[C@H](Sc1nncn1C)c1ccc(F)c(NC(=O)c2ccc3ccccc3n2)c1 [Compound 96a, (S)-N-(2-fluoro-5-(1-((4-methyl-4H-1,2,4-triazol-3-yl)thio)ethyl)phenyl)quinoline-2-carboxamide] | ≤ 10 | 1 to 3 | 1 to 3 |
| CC(CO)Nc1cc(C(C)Sc2nncn2C)cc(N2Cc3c(cccc3C(F)(F)F)C2=O)n1 (stereo not drawn) [Compound 176, 2-[6-[(2-hydroxy-1-methyl-ethyl)amino]-4-[1-[(4-methyl-1,2,4-triazol-3-yl)sulfanyl]ethyl]-2-pyridyl]-4-(trifluoromethyl)isoindolin-1-one] | ≤ 1 | 1 to 3 | 0.301 to 1 |
| C[C@H](Sc1nncn1C)c1cccc(NC(=O)c2cc(C(=O)N3CCC[C@H](O)C3)ccn2)c1 [Compound 150, 4-((S)-3-hydroxypiperidine-1-carbonyl)-N-(3-((S)-1-((4-methyl-4H-1,2,4-triazol-3-yl)thio)ethyl)phenyl)picolinamide] | ≤ 10 | > 10 | 3 to 10 |
| C[C@H](Sc1nncn1C)c1cccc(NC(=O)c2nc(C(F)(F)F)ccc2N)c1 [Compound 49, (S)-3-Amino-N-(3-(1-((4-methyl-4H-1,2,4-triazol-3-yl)thio)ethyl)phenyl)-6-(trifluoromethyl)picolinamide] | ≤ 10 | 1 to 3 | 1 to 3 |
| C[C@H](Sc1nncn1C)c1ccnc(NC(=O)c2cccc(Cl)n2)c1 [Compound 124, 6-chloro-N-[4-[(LV)-1-[(4-methyl-1,2,4-triazol-3-yl)sulfanyl]ethyl]-2-pyridyl]pyridine-2-carboxamide] | ≤ 10 | 3 to 10 | 1 to 3 |
| C[C@H](Sc1nncn1C)c1cccc(NC(=O)c2cc(C(=O)N3CC[C@H](N(C)C)C3)ccn2)c1 [Compound 160, 4-((S)-3-(dimethylamino)pyrrolidine-1-carbonyl)-N-(3-((S)-1-((4-methyl-4H-1,2,4-triazol-3-yl)thio)ethyl)phenyl)picolinamide] | ≤ 10 | 3 to 10 | 3 to 10 |
| C[C@H](Sc1nncn1C)c1cccc(NC(=O)c2cc(C(=O)NC[C@@H](C)O)ccn2)c1 [Compound 156, N^4-((R)-2-hydroxypropyl)-N^2-(3-((S)-1-((4-methyl-4H-1,2,4-triazol-3-yl)thio)ethyl)phenyl)pyridine-2,4-dicarboxamide] | ≤ 10 | 3 to 10 | 3 to 10 |
| C[C@H](Cc1ncnn1C)c1cccc(N2Cc3c(cccc3C(F)(F)F)C2=O)c1 [Compound 264, (R)-2-(3-(1-(2-methyl-2H-1,2,4-triazol-3-yl)propan-2-yl)phenyl)-4-(trifluoromethyl)isoindolin-1-one] | ≤ 10 | > 10 | 3 to 10 |
| C[C@H](Cc1nncn1C)c1cccc(NC(=O)c2cc(C(=O)N3CCC(CO)C3)ccn2)c1 (stereo partly drawn) [Compound 245, 4-(3-(hydroxymethyl)pyrrolidine-1-carbonyl)-N-(3-((R)-1-(4-methyl-4H-1,2,4-triazol-3-yl)propan-2-yl)phenyl)picolinamide] | ≤ 10 | 3 to 10 | 1 to 3 |
